{"source": "patent US8414989B2", "about": "“Cyclodextrin compositions, articles, and methods” (Cellresin Technologies, LLC, priority 2011, dated 2013)", "key": {"[1]": {"experiment": "Example 6: 1-MCP headspace release from PSA labels", "type": "physicochemical", "settings": "2.5 cm x 2.5 cm PSA label, 250 mL bottle; for Headspace concentration of 1-MCP, average: 50 μL water", "method": "A 100 mL quartz beaker was charged with 54 g of 2-isooctyl acrylate, 6 g of acrylic acid, and 0.60 g of 1-hydroxycyclohexyl phenyl ketone (IRGACURE® 184, Ciba Specialty Chemicals Corp. of Tarrytown, N.Y.). The beaker was equipped with a mechanical stirrer, and the contents were mixed for about 5 minutes while sparging with dry helium. Then the beaker was irradiated with a medium pressure mercury arc lamp operating at 79 watts per cm situated about 15 cm from the side of the beaker. The light was turned off when the contents of the flask were of a honey-like consistency, about 1.5 minutes. The beaker was further charged with 3.23 g of 1-MCP/c/α-CD, 0.89 g of IRGACURE® 184, 5.8 g of isooctyl acrylate, and 0.72 g of acrylic acid. The beaker contents were mixed until uniformly dispersed, about 5 minutes.\nAbout 4 mL of the mixture in the bottle was removed with a metered dropper and dispensed on 30.5 cm by 30.5 cm white paper labelstock, and drawn down using a metering rod (Meyer coating rod #30) having a delivered coating thickness of 25 microns. Then a 21.5 cm by 28 cm silicone coated polyester (PET) film sheet (120 μm thick (obtained from the 3M Company of St. Paul, Minn.) was placed over the coated labelstock, taking care not to entrain air bubbles. The coated and covered labelstock was cut into 10 cm by 20 cm rectangles using a paper cutter. The cut samples were passed by hand about 15 cm beneath a medium pressure mercury arc lamp operating at 79 watts per cm; multiple hand passes beneath the UV light or about 30 seconds under the lamp was used to cure the adhesive. The cured coated labelstock sheets were allowed to sit PET side up on a laboratory bench overnight.\nA paper cutter was used to cut six replicate 2.5 cm by 2.5 cm squares from the sheets. Because the UV cured coating composition is a pressure sensitive adhesive, or PSA, the 2.5 cm by 2.5 cm squares are termed “PSA labels.” Each PSA label, with the silicone coated PET still in place, was placed in a 250 mL serum bottle. Each bottle was sealed with a TEFLON® faced silicone septum. The headspace concentration of 1-MCP was measured after 1 hour following introduction of the PSA label into a bottle, using the technique of Example 3 except that 250 μL of gas was removed from the sample bottle for the analysis. 1-MCP was below the quantification limit of 0.01 ppm.\nThen 50 μL of deionized water was injected into each bottle. […] The sealed bottle headspace was analyzed at 10 minutes, 30 minutes, and 60 minutes, using the technique of Example 3. A final headspace sample was analyzed 16 hours after the injection of water. The data illustrate that 1-MCP was released from a PSA label into the headspace when exposed to water vapor (humidity) and that its concentration increases over time."}, "[2]": {"experiment": "Example 1: 1-MCP headspace release from UV-cured isobornyl acrylate coating with 1-MCP/c/α-CD on PET film (GC-FID)", "type": "physicochemical", "settings": "1 cm x 1 cm cured coated square, 250 mL bottle", "method": "A cyclodextrin inclusion complex is formed from α-cyclodextrin and 1-methyl cyclopropene (1-MCP) using the technique described by Neoh, T. L. et al., J. Agric. Food Chem. 2007, 55, 11020-11026 “Kinetics of Molecular Encapsulation of 1-Methylcyclopropene into α-Cyclodextrin.” The inclusion complex is termed “1-MCP/c/α-CD.” A 500 mL bottle is charged with 97.0 g of isobornyl acrylate, 1.0 g of hexanediol diacrylate, 1.0 g of 1-MCP/c/α-CD, and 1.0 g of […] (IRGACURE® 184, obtained from Ciba Specialty Chemicals Corp. of Tarrytown, N.Y.). The bottle is firmly capped and the components are mixed by shaking the bottle briefly by hand.\nAbout 2 mL of the mixture is removed with a metered dropper and dispensed on an 8.5 inch by 11 inch PET film and drawn down using a metering rod (Mayer rod) having a delivered coating thickness of 25 microns. Then the coated PET film is placed on a flat surface approximately 5 cm beneath a medium pressure mercury arc lamp operating at 200 watts per inch (79 watts per cm). After 30 seconds under the lamp, the film is removed. A silicone coated PET sheet (about 50 microns thick) is placed over the cured coating and allowed to sit on a laboratory bench overnight.\nA die cutter is used to cut a 1 cm by 1 cm square of the coated portion of the sheet. […] Headspace concentrations of 1-MCP are measured after 1 hour following introduction of the coated square into bottle. The 1-MCP headspace concentration is quantified using gas chromatography by removing 1 mL of gas from the sample bottle using a gas sampling valve interfaced directly to a GC column having FID detector.\nThen 50 μl of deionized water is injected into the jar. […] The sealed jar is allowed to sit on the lab bench for one hour after the injection of water, then a second headspace sample is analyzed. A final headspace sample is analyzed 24 hours after the injection of water. At 1 hour after injection of the water, 0.5 ppm of 1-MCP is measured in the headspace. After 24 hours, 0.5 ppm of 1-MCP is measured in the headspace."}}}
{"smiles": "CC1=CC1", "note": "[1-MCP, 1-methylcyclopropene]", "values": [{"measurement": "Headspace concentration of 1-MCP, average", "setting": "[1]; 0.17 hours", "value": "0.01 ppm (v/v)"}, {"measurement": "Headspace concentration of 1-MCP, average", "setting": "[1]; 0.5 hours", "value": "1.3 ppm (v/v)"}, {"measurement": "Headspace concentration of 1-MCP, average", "setting": "[1]; 1 hour", "value": "3.6 ppm (v/v)"}, {"measurement": "Headspace concentration of 1-MCP, average", "setting": "[1]; 16 hours", "value": "29.7 ppm (v/v)"}, {"measurement": "Headspace concentration of 1-MCP", "setting": "[1]; no water, 1 hour, quantification limit", "value": "< 0.01", "unit": "ppm"}, {"measurement": "Headspace concentration of 1-MCP", "setting": "[2]; 1 hour after injection of 50 μl water", "value": 0.5, "unit": "ppm"}, {"measurement": "Headspace concentration of 1-MCP", "setting": "[2]; 24 hours after injection of 50 μl water", "value": 0.5, "unit": "ppm"}, {"measurement": "Headspace concentration of 1-MCP", "setting": "[2]; no water added, 1 hour", "value": "No measurable concentration"}]}
